In assay [1] the test system is monochoria. Briefly: Test F flood (paddy) test. The assay is classed as in vivo, Monochoria vaginalis. Particulars: 21 d, scale 0-100. In outline:
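Visual injury ratings (0 no effect to 100 complete control) were taken 21 d after treatment against untreated controls. Compounds went directly into paddy water held 3 cm above soil, applied at the 2.0–2.5-leaf stage in sterilized Tama silt loam under a 30/27 °C, 16-h greenhouse regime.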

Assay [2] deals with Russian thistle. The assay is described as follows: Test D pre-/postemergence herbicide test. Particulars: Postemergence, Russian Thistle, scale 0 to 100. The class given is in vivo, Salsola kali. Summed up: (§1)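 Seeds sown in silt loam were sprayed preemergence with test chemicals in a non-phytotoxic solvent mixture with surfactant. Postemergence plants grown in peat/vermiculite medium were treated at 2–18 cm (1- to 4-leaf stage). After 7 to 21 days in a controlled environment, injury was rated visually versus controls, 0 (no effect) to 100 (complete control).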

Assay [3] relates to radish, wild. Briefly: Test D pre-/postemergence herbicide test. The assay is classed as in vivo, Raphanus raphanistrum. Particulars: for Plant response rating: Postemergence, Radish, Wild, scale 0 to 100; for Plant response rating, Radish, Wild: Preemergence, scale 0 to 100 (0 no effect, 100 complete control). In outline: as §1
Assay [4] has as its system johnsongrass. The assay is described as follows: Test E preemergence herbicide test. The assay is classed as in vivo, Sorghum halepense. The arrangement: key: 0 = no effect, 100 = complete control. In outline:
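Seeds were sown in silt loam soil and treated preemergence with test chemicals in a non-phytotoxic solvent mixture containing a surfactant. Plants were kept in a greenhouse for 21 days, then visually rated against untreated controls on a 0–100 scale (0 = no effect, 100 = complete control).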

Assay [5] has as its system dayflower, VA. Briefly: Test E preemergence herbicide test. The assay is classed as in vivo, Commelina virginica. The arrangement: key: 0 = no effect, 100 = complete control. The source says: Seeds of plant species selected from corn (Zea mays), soybean (Glycine max), velvetleaf (Abutilon theophrasti), lambsquarters (Chenopodium album), wild poinsettia (Euphorbia heterophylla), pigweed, palmer (palmer pigweed, Amaranthus palmeri), waterhemp (common waterhemp, Amaranthus rudis), surinam grass (Brachiaria decumbens), crabgrass, large (large crabgrass, Digitaria sanguinalis), crabgrass, Brazil (Brazilian crabgrass, Digitaria horizontalis), panicum, fall (fall panicum, Panicum dichotomiflorum), foxtail, giant (giant foxtail, Setaria faberii), foxtail, green (green foxtail, Setaria viridis), goosegrass (Eleusine indica), johnsongrass (Sorghum halepense), ragweed (common ragweed, Ambrosia elatior), barnyardgrass (Echinochloa crus-galli), sandbur (southern sandbur, Cenchrus echinatus), arrowleaf […] rhombifolia), ryegrass, Italian (Italian ryegrass, Lolium multiflorum), dayflower, VA (Virginia dayflower, Commelina virginica), field bindweed (Convolvulus arvensis), morningglory (Ipomoea coccinea), nightshade (eastern black nightshade, Solanum ptycanthum), kochia (Kochia scoparia), nutsedge, yellow (yellow nutsedge, Cyperus esculentus), cocklebur (common cocklebur, Xanthium strumarium), smartweed (ladysthumb smartweed, Polygonum Persicaria) and beggarticks (hairy beggarticks, Bidens pilosa), were planted into a silt loam soil and treated preemergence with test chemicals formulated in a non-phytotoxic solvent mixture which included a surfactant. Treated plants and controls were maintained in a greenhouse for 21 days, after which time all species were compared to controls and visually evaluated. Plant response ratings, summarized in Table E, are based on a scale of 0 to 100 where 0 is no effect and 100 is complete control. A dash (-) response means no test result.

In the case of `O=C1NCC(c2ccc(F)c(F)c2)C1C(=O)Nc1cccc(F)c1F` (racemic) [Compound 101], the “Plant response rating, Monochoria” value was found to be 75 in assay [1] (64 g ai/ha), 100 in assay [1] (125 g ai/ha), 100 in assay [1] (250 g ai/ha) and 100 in assay [1] (500 g ai/ha).

With `O=C1NCC(c2cccc(C(F)F)c2)C1C(=O)Nc1ccccc1F` (racemic) [Compound 210], the results for the “Plant response rating, Monochoria” value in assay [1] (125 g ai/ha), in assay [1] (250 g ai/ha) and in assay [1] (500 g ai/ha) were 65, 85 and 100, respectively.

As for `O=C1NCCC1C(=O)N(c1ccc(F)c(F)c1)c1ccccc1F` (centres unmarked) [Compound 5, N-(3,4-difluorophenyl)-N-(2-fluorophenyl)-2-oxo-3-pyrrolidinecarboxamide], the “Plant response rating, Monochoria” value in assay [1] (125 g ai/ha), in assay [1] (250 g ai/ha), in assay [1] (500 g ai/ha), in assay [1] (1000 g ai/ha) and in assay [1] (2000 g ai/ha) was 75 throughout.

In the case of `O=C1NCC(c2ccc(C(F)(F)F)cc2)C1C(=O)Nc1cccc(F)c1F` (centres unmarked) [Compound 80, N-(2,3-difluorophenyl)-2-oxo-4-[4-(trifluoromethyl)phenyl]-3-pyrrolidinecarboxamide], the Plant response rating in assay [2] (31 g ai/ha) is reported as 20; in assay [2] (62 g ai/ha) it was 30; in assay [2] (125 g ai/ha) it was 25; in assay [2] (250 g ai/ha), 35; in assay [3] (31 g ai/ha), 50; in assay [3] (62 g ai/ha), 70. The results for the Plant response rating in assay [3] (125 g ai/ha) and in assay [3] (250 g ai/ha) were 35 and 60, respectively. Besides, the “Plant response rating, Radish, Wild” value is 30 in assay [3] (62 g ai/ha), 30 in assay [3] (125 g ai/ha), 15 in assay [3] (31 g ai/ha) and 70 in assay [3] (250 g ai/ha). For the same molecule, the “Plant response rating, Johnsongrass” value in assay [4] (16 g ai/ha) is given as 0; in assay [4] (31 g ai/ha), 0; in assay [4] (62 g ai/ha), 0; in assay [4] (125 g ai/ha), 10; in assay [4] (250 g ai/ha), 30. The “Plant response rating, Dayflower, VA” value in assay [5] (16 g ai/ha), in assay [5] (31 g ai/ha), in assay [5] (62 g ai/ha), in assay [5] (125 g ai/ha) and in assay [5] (250 g ai/ha) was 0 throughout.

On to `O=C1NC[C@H](c2cccc(C(F)(F)F)c2)[C@H]1C(=O)Nc1ccccc1F` [Compound 204, (3R,4S)—N-(2-fluorophenyl)-2-oxo-4-[3-(trifluoromethyl)phenyl]-3-pyrrolidinecarboxamide], for which the “Plant response rating, Radish, Wild” value in assay [3] (62 g ai/ha), in assay [3] (125 g ai/ha), in assay [3] (31 g ai/ha) and in assay [3] (250 g ai/ha) was 0 throughout. In addition, the “Plant response rating, Johnsongrass” value in assay [4] (31 g ai/ha) worked out at 0; in assay [4] (62 g ai/ha) it was 0; in assay [4] (125 g ai/ha) it was 35; in assay [4] (250 g ai/ha), 40. Besides, the “Plant response rating, Dayflower, VA” value is recorded as 0 in assay [5] (31 g ai/ha), 0 in assay [5] (62 g ai/ha), 20 in assay [5] (125 g ai/ha) and 30 in assay [5] (250 g ai/ha). Also, the “Plant response rating, Monochoria” value was 95 in assay [1] (125 g ai/ha), 100 in assay [1] (250 g ai/ha) and 100 in assay [1] (500 g ai/ha).

Regarding `CN1CC(c2ccc(F)c(F)c2)C(C(=O)Nc2cccc(F)c2F)C1=O` (centres unmarked) [Compound 303], the “Plant response rating, Monochoria” value in assay [1] (62 g ai/ha), in assay [1] (125 g ai/ha), in assay [1] (250 g ai/ha) and in assay [1] (500 g ai/ha) was 100 each time.

The values above are taken from patent US10294202B2, “Pyrrolidinones as herbicides” (FMC Corporation, priority 2013, dated 2019).
